Test results: PMC7558026, “Exploring and applying the substrate promiscuity of a C-glycosyltransferase in the chemo-enzymatic synthesis of bioactive C-glycosides” (Nature Communications, 2020)
Where “and” joins values, the source holds several entries; their conditions need not be identical. Equal entries are not always repeated.

Assays:
Format in all cases: biochemical, Aloe barbadensis
AbCGT V183E = target: T1, AbCGT V183E (Aloe vera, UniProt A0A7G9P699, V183E); experiment: Glycosyltransferase activity of AbCGT variant V183E
T1 sequence (A0A7G9P699 1-470 V183E): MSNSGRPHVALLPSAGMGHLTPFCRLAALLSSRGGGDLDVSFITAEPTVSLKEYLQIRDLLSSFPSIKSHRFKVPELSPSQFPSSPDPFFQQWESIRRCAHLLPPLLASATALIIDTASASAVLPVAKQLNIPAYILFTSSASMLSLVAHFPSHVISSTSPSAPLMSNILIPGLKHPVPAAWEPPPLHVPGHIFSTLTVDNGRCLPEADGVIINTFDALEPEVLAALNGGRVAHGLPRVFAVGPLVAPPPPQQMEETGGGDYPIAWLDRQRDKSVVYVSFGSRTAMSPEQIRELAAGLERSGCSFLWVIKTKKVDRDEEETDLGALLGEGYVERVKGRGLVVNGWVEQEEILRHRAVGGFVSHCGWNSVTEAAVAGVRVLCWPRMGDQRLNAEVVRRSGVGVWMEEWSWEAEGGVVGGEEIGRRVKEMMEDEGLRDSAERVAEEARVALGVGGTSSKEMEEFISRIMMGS
Description: (§1) The reaction mixture contained 0.5 mM sugar donors (1.0 mM for di-glycosylation), 0.25 mM aglycons, 50 mM Tris-HCl (pH 7.4), and 50‒100 μg of purified AbCGT in a final volume of 100 μL. Due to the instability of some acceptors in the buffer of pH 11.0, the reactions were performed under the physiological conditions (pH 7.4, 30 °C) to compare the catalytic activities of AbGT27 with different substrates under the same conditions. The reactions were performed at 30 °C for up to 12 h and terminated by the addition of 200 μL of ice-cold methanol. Subsequently, samples were centrifuged at 15,000 × g for 30 min to collect the supernatant, and aliquots were analyzed by HPLC-UV/ESIMS. HPLC analysis was performed on a Shiseido CAPCELL PAK C18 MG III column (250 mm × 4.6 mm I.D., 5 μm, Shiseido Co., Ltd., Japan) at a flow rate of 1 mL min^‒1. The mobile phase was a gradient elution of solvents A (0.1% formic acid aqueous solution) and B (methanol). The gradient programs were used for the analysis of the reactions (Supplementary Table 6). The conversion rates of the enzyme reactions were calculated from peak areas of glycosylated products and substrates as analyzed by HPLC. To facilitate inferential statistical analysis, three parallel assays were routinely performed; the means ± SD from triplicate analyses are reported here.
Site-saturation mutagenesis of AbCGT at residue 183 was performed by PCR using pET28a-AbCGT as a template and the corresponding degenerate primers, which are listed in Supplementary Table 5. PCR products were purified and transformed into Trans1-T1 (DE3) E. coli. The sequences of pET28a-AbCGT mutants were confirmed by sequencing, and transformed into Transetta (DE3) E. coli for heterologous expression following protein purification.

AbCGT V183M = experiment: Glycosyltransferase activity of AbCGT variant V183M; conditions: pH 7.4, 30 °C, 12 h, Reaction-1 to -3
Description: as §1, with “here. […]” for “here.”

AbCGT V183D = target: T2, AbCGT V183D (Aloe vera, UniProt A0A7G9P699, V183D); experiment: Glycosyltransferase activity of AbCGT variant V183D
T2 sequence (A0A7G9P699 1-470 V183D): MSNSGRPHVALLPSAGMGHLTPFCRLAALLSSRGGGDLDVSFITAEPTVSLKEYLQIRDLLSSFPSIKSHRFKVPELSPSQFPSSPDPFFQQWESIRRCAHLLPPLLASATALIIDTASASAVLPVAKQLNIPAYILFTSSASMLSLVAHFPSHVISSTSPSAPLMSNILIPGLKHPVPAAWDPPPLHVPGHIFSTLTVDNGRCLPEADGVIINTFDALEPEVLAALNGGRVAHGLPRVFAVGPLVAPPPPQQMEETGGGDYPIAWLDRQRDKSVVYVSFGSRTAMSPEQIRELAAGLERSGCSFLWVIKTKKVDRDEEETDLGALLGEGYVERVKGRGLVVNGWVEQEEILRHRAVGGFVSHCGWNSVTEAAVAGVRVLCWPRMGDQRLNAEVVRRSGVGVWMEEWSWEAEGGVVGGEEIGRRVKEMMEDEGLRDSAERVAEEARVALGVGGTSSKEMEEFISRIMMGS
Procedure, shortened: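 Each purified AbCGT residue-183 mutant (50‒100 μg) was incubated with 0.25 mM aglycon and 0.5 mM sugar donor (1.0 mM for di-glycosylation) in 50 mM Tris-HCl pH 7.4 at 30 °C for up to 12 h. The reaction was quenched with cold methanol, and conversion rate was taken from HPLC peak areas of product versus substrate; triplicate means ± SD.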

AbCGT [1] = target: T3, AbCGT (Aloe vera, UniProt A0A7G9P699); experiment: Glycosyltransferase activity assay, purified AbCGT (wild type) with aglycon acceptors and UDP-Glc; conditions: pH 7.4, 30 °C, 12 h, Reaction-1 to -3
T3 sequence (A0A7G9P699 entry or part of it): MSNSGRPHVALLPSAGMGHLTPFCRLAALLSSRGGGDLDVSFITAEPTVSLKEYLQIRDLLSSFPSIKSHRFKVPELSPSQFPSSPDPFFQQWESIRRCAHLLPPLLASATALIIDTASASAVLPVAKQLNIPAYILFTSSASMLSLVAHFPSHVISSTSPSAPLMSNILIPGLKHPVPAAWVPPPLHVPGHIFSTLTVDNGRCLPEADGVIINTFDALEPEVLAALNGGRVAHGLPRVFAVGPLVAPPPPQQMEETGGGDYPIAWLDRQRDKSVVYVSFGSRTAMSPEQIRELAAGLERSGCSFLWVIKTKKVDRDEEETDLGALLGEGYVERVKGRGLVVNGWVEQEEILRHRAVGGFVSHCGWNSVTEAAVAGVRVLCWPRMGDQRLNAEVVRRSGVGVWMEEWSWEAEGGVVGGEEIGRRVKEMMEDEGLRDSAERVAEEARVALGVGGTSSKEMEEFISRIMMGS

AbCGT [2] = target: T3, AbCGT; experiment: as above
AbCGT V183R = experiment: Glycosyltransferase activity of AbCGT variant V183R; conditions: pH 7.4, 30 °C, 12 h, Reaction-1 to -3
Description: as §1, with “here. […]” for “here.”

AbCGT V183N = experiment: Glycosyltransferase activity of AbCGT variant V183N; conditions: pH 7.4, 30 °C, 12 h, Reaction-1 to -3
Description: as §1, with “here. […]” for “here.”

AbCGT V183Q = experiment: Glycosyltransferase activity of AbCGT variant V183Q; conditions: pH 7.4, 30 °C, 12 h, Reaction-1 to -3
Description: as §1, with “here. […]” for “here.”

AbCGT V183C = experiment: Glycosyltransferase activity of AbCGT variant V183C; conditions: pH 7.4, 30 °C, 12 h, Reaction-1 to -3
Description: as §1, with “here. […]” for “here.”

AbCGT V183L = experiment: Glycosyltransferase activity of AbCGT variant V183L; conditions: pH 7.4, 30 °C, 12 h, Reaction-1 to -3
Description: as §1, with “here. […]” for “here.”

[3] = V183E, pH 7.4, 30 °C, 12 h, Reaction-1 to -3
[4] = V183D, pH 7.4, 30 °C, 12 h, Reaction-1 to -3
[5] = aglycon acceptor with UDP-Glc, pH 7.4, 30 °C, up to 12 h, Reaction-1 to -3

O=C1CC(O)(c2ccc(O)cc2)Oc2cc(O)cc(O)c21 (stereo not drawn) [Compound 23, 2-hydroxynaringenin]
conversion rates of 2-hydroxynaringenin, C-glycosylation (AbCGT V183E; [3]): 99.8% and 99.6%
conversion rates of 2-hydroxynaringenin, O-glycosylation (AbCGT V183E; [3]): 0.2% and 0.4%
V183E/yield of O-glycoside(%) (AbCGT V183E; reaction-1): 0% and 0.5%
V183E/yield of O-glycoside(%) (AbCGT V183E; reaction-2): 0% and 0.3%
V183E/yield of O-glycoside(%) (AbCGT V183E; reaction-3): 0% and 0.8%
conversion rates of 2-hydroxynaringenin, C-glycosylation (AbCGT V183M): 80.2% and 82.7% and 79.5%
conversion rates of 2-hydroxynaringenin, O-glycosylation (AbCGT V183M): 19.8% and 17.3% and 20.5%
conversion rates of 2-hydroxynaringenin, C-glycosylation (AbCGT V183D; [4]): 99.7% and 99.5%
conversion rates of 2-hydroxynaringenin, O-glycosylation (AbCGT V183D; [4]): 0.3% and 0.5%
V183D/yield of C-glycoside(%) (AbCGT V183D; reaction-1): 99.3%
V183D/yield of O-glycoside(%) (AbCGT V183D; reaction-1): 0.7%
V183D/yield of C-glycoside(%) (AbCGT V183D; reaction-2): 99.5%
V183D/yield of O-glycoside(%) (AbCGT V183D; reaction-2): 0.5%
V183D/yield of C-glycoside(%) (AbCGT V183D; reaction-3): 99.2%
V183D/yield of O-glycoside(%) (AbCGT V183D; reaction-3): 0.8%
conversion rates of 2-hydroxynaringenin, C-glycosylation (AbCGT [1]): 85.9% and 83.4% and 85%
conversion rates of 2-hydroxynaringenin, O-glycosylation (AbCGT [1]): 14.1% and 16.6% and 15%
conversion rates, O,N,S-glycosylation (AbCGT [2]; [5]): 16.7% and 14.4% and 17.2%
conversion rates, di-C-glycosylation (AbCGT [2]; [5]): 0%
conversion rates, mono-C-glycosylation (AbCGT [2]; [5]): 83.3% and 85.6% and 82.8%
WT/yield of C-glycoside(%) (AbCGT [2]; reaction-1): 82%
WT/yield of O-glycoside(%) (AbCGT [2]; reaction-1): 18.7%
WT/yield of C-glycoside(%) (AbCGT [2]; reaction-2): 84.9%
WT/yield of O-glycoside(%) (AbCGT [2]; reaction-2): 16.2%
WT/yield of C-glycoside(%) (AbCGT [2]; reaction-3): 83.2%
WT/yield of O-glycoside(%) (AbCGT [2]; reaction-3): 17.8%
conversion rates of 2-hydroxynaringenin, C-glycosylation (AbCGT V183R): 64.9% and 75.1% and 70.5%
conversion rates of 2-hydroxynaringenin, O-glycosylation (AbCGT V183R): 3.4% and 2.7% and 2.9%
conversion rates of 2-hydroxynaringenin, C-glycosylation (AbCGT V183N): 95.8% and 95.1% and 94.3%
conversion rates of 2-hydroxynaringenin, O-glycosylation (AbCGT V183N): 4.2% and 4.9% and 5.7%
conversion rates of 2-hydroxynaringenin, C-glycosylation (AbCGT V183Q): 88.9% and 88.2%
conversion rates of 2-hydroxynaringenin, O-glycosylation (AbCGT V183Q): 11.1% and 11.8%
conversion rates of 2-hydroxynaringenin, C-glycosylation (AbCGT V183C): 85.3% and 83.5%
conversion rates of 2-hydroxynaringenin, O-glycosylation (AbCGT V183C): 14.7% and 16.5%
conversion rates of 2-hydroxynaringenin, C-glycosylation (AbCGT V183L): 83% and 80% and 76.5%
conversion rates of 2-hydroxynaringenin, O-glycosylation (AbCGT V183L): 17% and 20% and 23.5%
